Reference: patent US20200239530A1, “COMPOUNDS AND METHODS OF MODULATING PROTEIN DEGRADATION” (Vividion Therapeutics, Inc., priority 2017, published 2020)

Columns and labels:
Experiment in all cases: Cysteine liganding, probe competition
Assay type in all cases: binding
UniProt Q96BF6 = molecular target: T1, UniProt Q96BF6 (Homo sapiens, UniProt Q96BF6); details: for inhibition at 100 µM / inhibition at 500 µM: read-out: percent inhibition
T1 construct: Cells were resuspended in cold PBS on ice and sonicated with a probe sonicator to achieve lysis; endogenous in cells
T1 sequence (Q96BF6 1-587): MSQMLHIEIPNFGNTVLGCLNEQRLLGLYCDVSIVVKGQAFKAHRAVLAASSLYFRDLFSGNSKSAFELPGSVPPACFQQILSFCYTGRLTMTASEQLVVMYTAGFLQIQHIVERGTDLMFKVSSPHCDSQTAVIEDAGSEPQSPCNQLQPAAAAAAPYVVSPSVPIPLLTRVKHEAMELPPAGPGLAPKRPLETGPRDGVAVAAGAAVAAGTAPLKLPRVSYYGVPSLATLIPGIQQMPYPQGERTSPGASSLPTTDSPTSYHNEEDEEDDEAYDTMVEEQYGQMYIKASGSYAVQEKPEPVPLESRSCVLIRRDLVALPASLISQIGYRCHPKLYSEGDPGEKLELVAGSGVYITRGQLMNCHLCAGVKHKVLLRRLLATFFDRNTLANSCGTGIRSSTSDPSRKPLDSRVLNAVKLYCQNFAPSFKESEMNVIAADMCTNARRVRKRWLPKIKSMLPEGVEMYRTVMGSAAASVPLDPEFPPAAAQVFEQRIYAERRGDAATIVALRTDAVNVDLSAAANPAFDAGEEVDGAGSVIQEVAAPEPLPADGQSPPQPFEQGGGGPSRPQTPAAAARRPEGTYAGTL
Text: (§1) The following 96-well sample prep protocol was used for sample preparation.

UniProt P46934 = molecular target: T2, UniProt P46934 (Homo sapiens, UniProt P46934)
T2 construct: Cells were resuspended in cold PBS on ice and sonicated with a probe sonicator to achieve lysis; endogenous in cells
T2 sequence (P46934 1-1319): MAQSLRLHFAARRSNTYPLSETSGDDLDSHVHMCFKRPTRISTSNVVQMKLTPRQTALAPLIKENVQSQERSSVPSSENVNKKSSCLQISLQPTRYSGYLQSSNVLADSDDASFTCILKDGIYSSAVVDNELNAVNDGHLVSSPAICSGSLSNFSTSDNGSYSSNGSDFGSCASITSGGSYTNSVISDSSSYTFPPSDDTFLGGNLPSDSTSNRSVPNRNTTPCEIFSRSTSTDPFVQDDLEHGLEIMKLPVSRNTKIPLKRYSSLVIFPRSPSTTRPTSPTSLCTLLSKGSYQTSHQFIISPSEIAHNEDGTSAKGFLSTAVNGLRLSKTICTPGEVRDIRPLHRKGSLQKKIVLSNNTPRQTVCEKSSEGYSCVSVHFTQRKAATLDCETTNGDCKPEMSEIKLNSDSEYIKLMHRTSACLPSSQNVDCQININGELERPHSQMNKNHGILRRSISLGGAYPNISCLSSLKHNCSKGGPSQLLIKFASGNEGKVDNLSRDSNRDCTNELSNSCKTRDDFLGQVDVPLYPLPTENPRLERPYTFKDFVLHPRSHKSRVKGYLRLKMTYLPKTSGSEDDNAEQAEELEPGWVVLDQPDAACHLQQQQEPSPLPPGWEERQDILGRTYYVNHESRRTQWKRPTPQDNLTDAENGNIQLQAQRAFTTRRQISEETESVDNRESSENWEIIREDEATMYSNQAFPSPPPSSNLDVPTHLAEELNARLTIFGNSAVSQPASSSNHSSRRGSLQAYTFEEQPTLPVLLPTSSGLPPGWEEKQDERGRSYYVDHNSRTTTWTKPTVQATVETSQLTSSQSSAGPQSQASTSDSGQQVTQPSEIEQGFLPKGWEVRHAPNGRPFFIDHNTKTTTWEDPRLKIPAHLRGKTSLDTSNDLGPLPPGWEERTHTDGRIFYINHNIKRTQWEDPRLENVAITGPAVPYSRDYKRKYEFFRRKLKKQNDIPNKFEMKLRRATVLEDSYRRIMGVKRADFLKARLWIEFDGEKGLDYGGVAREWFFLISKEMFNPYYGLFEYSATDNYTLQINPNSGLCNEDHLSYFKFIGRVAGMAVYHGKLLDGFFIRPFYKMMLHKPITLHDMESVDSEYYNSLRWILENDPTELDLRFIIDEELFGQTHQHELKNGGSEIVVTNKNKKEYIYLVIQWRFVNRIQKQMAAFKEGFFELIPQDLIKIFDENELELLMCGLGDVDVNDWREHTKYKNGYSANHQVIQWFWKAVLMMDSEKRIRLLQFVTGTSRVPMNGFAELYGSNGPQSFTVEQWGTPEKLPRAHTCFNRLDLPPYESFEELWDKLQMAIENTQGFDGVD
Text: as §1

UniProt Q495X7 = molecular target: T3, UniProt Q495X7 (Homo sapiens, UniProt Q495X7)
T3 construct: 200 μL of lysate containing 5 mg/ml proteome was treated with 2 μL of 100× compound stock; endogenous in cells
T3 sequence (Q495X7 1-471): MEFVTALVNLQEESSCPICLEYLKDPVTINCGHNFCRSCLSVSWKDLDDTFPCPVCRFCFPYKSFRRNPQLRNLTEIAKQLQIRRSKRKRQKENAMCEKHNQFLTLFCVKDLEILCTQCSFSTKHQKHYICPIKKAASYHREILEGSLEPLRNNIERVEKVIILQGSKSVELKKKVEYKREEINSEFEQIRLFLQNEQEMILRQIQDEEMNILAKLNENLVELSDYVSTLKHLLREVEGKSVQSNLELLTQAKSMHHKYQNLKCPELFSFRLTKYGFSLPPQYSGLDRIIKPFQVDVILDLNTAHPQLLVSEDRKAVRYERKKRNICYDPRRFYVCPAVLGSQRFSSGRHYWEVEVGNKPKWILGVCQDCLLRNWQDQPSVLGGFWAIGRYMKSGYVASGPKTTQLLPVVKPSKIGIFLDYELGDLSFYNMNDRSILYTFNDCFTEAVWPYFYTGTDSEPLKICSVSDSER
Text: as §1

inhibition at 100 µM (UniProt P46934; 100 uM, read-out: percent inhibition) | inhibition at 500 µM (UniProt P46934; 500 uM, read-out: percent inhibition) | SMILES | inhibition at 100 µM (UniProt Q96BF6; 100 uM) | percent inhibition (UniProt Q96BF6; 500 uM) | inhibition at 500 µM (UniProt Q96BF6; 500 uM) | KB03_100 uM_percent_inhibition (UniProt Q495X7; 100 uM) | KB03_500 uM_percent_inhibition (UniProt Q495X7; 500 uM) | percent inhibition (UniProt P46934; 100 uM) | percent inhibition (UniProt P46934; 500 uM) | inhibition at 100 µM (UniProt Q495X7; 100 uM, read-out: KB02_100 uM_percent_inhibition) | inhibition at 500 µM (UniProt Q495X7; 500 uM, read-out: KB02_500 uM_percent_inhibition) | percent inhibition (UniProt Q96BF6; 100 uM)
52% | 53% | C=CC(=O)N(c1ccccc1)c1ccc(Br)cc1 [KB05] | 25% | 56% | 47% |  |  |  |  |  |  | 
 |  | O=C(CCl)Nc1cc(C(F)(F)F)cc(C(F)(F)F)c1 [KBO3] |  |  |  | 27% | 43% | 71% | 76% |  |  | 
 |  | COc1ccc2c(c1)CCCN2C(=O)CCl [KB02] | 38% | 32% | 46% |  |  |  |  | 15% | 44% | 32%
